One block for each compound: values may come before it.
Key:
[1] = molecular target: Sodium-dependent serotonin transporter (Homo sapiens, UniProt P31645); test: biochemical
Description: Displacement of [3H]5HT from human 5HT transporter expressed in HEK293 cells by scintillation counting

[2] = molecular target: Sodium-dependent dopamine transporter (Homo sapiens, UniProt Q01959); test: biochemical
Description: Displacement of [3H]dopamine from human DAT receptor expressed in HEK293 cells by scintillation counting

[3] = molecular target: Sodium-dependent noradrenaline transporter (Homo sapiens, UniProt P23975); test: biochemical
Description: Displacement of [3H]noradrenaline from human NET receptor expressed in HEK293 cells by scintillation counting

[4] = molecular target: Voltage-gated inwardly rectifying potassium channel KCNH2 (Homo sapiens, UniProt Q12809)
[5] = in vitro; details: human, liver microsomes
Description: Intrinsic clearance in human liver microsomes

[6] = tested on: MDR1; test: Permeability from apical to basolateral side of MDCK cells over expressing MDR1; format: ADME, cell-based, Canis lupus familiaris; details: dog
[7] = tested on: MDR1; test: in vitro; details: dog, MDCK-MDR1
Description: Efflux ratio of permeability from apical to basolateral over basolateral to apical side in MDCK cells over expressing MDR1

[8] = tested on: MDR1; test: Permeability from basolateral to apical side of MDCK cells over expressing MDR1; format: ADME, cell-based, Canis lupus familiaris; details: dog
[9] = molecular target: Cytochrome P450 2D6 (Homo sapiens, UniProt P10635); test: Inhibition of CYP2D6; format: ADME
[10] = organism: Canis familiaris; test: Increase in peak urethral pressure in Beagle dog; format: functional, Canis lupus familiaris, Urethra
[11] = Apparent permeability from apical to basolateral side of human Caco-2 cells at 10 uM; format: ADME, cell-based
[12] = tested on: Rattus norvegicus; test: Toxicity in rat assessed as effect on locomotor activity at 15 mg/kg, po after 14 days; format: organism-based; parameters: dose 15 mg/kg, route oral; details: in vivo, 336 h
[13] = Binding affinity to sigma opioid receptor
[14] = molecular target: T1, Cytochrome P450 3A4 (Homo sapiens, UniProt P08684); test: Inhibition of CYP3A4 using felodipine as a substrate; format: ADME
[15] = Binding affinity to sodium channel
[16] = organism: Canis familiaris; test: Toxicity in Beagle dog after 14 days; format: organism-based, Canis lupus familiaris; details: in vivo, 336 h
[17] = molecular target: Cytochrome P450 2C19 (Homo sapiens, UniProt P33261); test: Inhibition of CYP2C19; format: ADME
[18] = molecular target: T1, Cytochrome P450 3A4; test: Inhibition of CYP3A4 using testosterone as a substrate; format: ADME
[19] = Apparent permeability from basolateral to apical side of human Caco-2 cells at 10 uM; format: ADME, cell-based
[20] = organism: Rattus norvegicus; test: Toxicity in rat after 14 days; format: organism-based; details: in vivo, 336 h
[21] = tested on: Plasma; test: fCmax in Beagle dog plasma; format: ADME, organism-based, Canis lupus familiaris; details: in vivo
[22] = Dissociation constant, pKa of the compound; format: physicochemical
[23] = molecular target: Cytochrome P450 2C9 (Homo sapiens, UniProt P11712); test: Inhibition of CYP2C9; format: ADME
[24] = molecular target: T2, Cytochrome P450 1A2 (Homo sapiens, UniProt P05177); test: Inhibition of CYP1A2; format: ADME
T2 sequence (P05177 whole entry): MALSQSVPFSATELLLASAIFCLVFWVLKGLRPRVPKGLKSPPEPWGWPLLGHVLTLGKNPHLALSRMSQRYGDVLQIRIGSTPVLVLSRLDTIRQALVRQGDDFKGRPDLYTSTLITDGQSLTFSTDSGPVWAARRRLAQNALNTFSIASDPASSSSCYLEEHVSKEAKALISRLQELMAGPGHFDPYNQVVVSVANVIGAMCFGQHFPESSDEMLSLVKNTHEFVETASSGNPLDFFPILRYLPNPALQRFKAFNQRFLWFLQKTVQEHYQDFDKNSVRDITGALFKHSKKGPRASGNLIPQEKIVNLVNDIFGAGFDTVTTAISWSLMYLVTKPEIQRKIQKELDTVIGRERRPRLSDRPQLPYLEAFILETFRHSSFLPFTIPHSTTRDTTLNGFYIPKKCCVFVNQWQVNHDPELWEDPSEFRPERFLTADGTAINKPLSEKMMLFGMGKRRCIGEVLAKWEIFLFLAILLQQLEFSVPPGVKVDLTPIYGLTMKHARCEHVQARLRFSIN

[25] = Intrinsic clearance in human hepatocytes measured per million cells; format: ADME, cell-based, Liver, Hepatocyte
[26] = molecular target: T1, Cytochrome P450 3A4; test: Inhibition of CYP3A4 using midazolam as a substrate; format: ADME
[27] = Lipophilicity, log D at pH 7.4; format: physicochemical; details: buffer
[28] = molecular target: Kappa-type opioid receptor (Homo sapiens, UniProt P41145); test: Binding affinity to kappa opioid receptor
[29] = Ratio of drug level from CSF to plasma in Beagle dog; format: ADME, Canis lupus familiaris

Sodium-dependent dopamine transporter, sequence (Q01959 whole entry): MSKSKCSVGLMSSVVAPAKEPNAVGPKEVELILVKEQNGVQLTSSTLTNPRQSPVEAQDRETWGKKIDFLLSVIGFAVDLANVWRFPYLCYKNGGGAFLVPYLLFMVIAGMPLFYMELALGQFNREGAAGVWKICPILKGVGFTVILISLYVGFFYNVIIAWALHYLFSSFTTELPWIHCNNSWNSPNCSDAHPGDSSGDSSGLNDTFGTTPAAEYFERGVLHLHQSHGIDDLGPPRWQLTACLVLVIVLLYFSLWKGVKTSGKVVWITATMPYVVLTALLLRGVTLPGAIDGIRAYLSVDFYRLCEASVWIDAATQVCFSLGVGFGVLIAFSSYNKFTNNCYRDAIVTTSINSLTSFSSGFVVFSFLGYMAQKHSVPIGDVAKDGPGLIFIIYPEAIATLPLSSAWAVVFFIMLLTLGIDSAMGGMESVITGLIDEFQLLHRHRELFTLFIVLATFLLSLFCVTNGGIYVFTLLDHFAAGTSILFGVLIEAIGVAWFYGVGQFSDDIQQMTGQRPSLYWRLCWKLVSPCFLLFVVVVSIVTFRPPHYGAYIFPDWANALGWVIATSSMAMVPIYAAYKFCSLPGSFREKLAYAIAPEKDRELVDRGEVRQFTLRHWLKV
T1 sequence (P08684 whole entry): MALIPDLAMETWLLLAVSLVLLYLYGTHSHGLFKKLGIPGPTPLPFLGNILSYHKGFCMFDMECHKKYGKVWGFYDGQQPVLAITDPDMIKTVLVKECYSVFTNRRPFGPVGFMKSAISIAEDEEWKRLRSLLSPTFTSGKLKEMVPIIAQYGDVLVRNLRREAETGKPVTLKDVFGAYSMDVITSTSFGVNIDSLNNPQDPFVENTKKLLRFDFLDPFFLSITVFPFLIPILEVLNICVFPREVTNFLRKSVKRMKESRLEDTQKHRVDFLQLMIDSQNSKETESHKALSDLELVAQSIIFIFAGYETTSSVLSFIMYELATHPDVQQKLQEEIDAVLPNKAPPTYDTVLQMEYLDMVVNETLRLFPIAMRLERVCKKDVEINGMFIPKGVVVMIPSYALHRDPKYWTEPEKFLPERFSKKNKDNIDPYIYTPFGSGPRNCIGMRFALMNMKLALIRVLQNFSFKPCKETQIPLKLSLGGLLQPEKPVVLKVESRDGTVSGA
Sodium-dependent serotonin transporter, sequence (P31645 whole entry): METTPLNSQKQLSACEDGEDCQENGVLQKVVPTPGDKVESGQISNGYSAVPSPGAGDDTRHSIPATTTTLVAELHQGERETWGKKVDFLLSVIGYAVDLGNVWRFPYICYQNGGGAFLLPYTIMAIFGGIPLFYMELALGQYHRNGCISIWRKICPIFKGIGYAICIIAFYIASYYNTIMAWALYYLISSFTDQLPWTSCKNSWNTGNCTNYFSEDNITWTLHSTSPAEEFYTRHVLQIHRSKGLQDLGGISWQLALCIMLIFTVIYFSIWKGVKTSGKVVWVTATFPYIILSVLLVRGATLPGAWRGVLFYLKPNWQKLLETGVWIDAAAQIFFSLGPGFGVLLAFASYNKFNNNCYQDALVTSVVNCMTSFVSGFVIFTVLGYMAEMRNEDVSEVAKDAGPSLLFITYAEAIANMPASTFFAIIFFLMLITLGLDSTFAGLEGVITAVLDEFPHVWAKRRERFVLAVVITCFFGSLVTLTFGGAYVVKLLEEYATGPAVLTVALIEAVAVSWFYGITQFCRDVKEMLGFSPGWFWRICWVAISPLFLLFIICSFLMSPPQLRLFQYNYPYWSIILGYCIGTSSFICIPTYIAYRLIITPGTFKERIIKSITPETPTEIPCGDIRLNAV
Sodium-dependent noradrenaline transporter, sequence (P23975 whole entry): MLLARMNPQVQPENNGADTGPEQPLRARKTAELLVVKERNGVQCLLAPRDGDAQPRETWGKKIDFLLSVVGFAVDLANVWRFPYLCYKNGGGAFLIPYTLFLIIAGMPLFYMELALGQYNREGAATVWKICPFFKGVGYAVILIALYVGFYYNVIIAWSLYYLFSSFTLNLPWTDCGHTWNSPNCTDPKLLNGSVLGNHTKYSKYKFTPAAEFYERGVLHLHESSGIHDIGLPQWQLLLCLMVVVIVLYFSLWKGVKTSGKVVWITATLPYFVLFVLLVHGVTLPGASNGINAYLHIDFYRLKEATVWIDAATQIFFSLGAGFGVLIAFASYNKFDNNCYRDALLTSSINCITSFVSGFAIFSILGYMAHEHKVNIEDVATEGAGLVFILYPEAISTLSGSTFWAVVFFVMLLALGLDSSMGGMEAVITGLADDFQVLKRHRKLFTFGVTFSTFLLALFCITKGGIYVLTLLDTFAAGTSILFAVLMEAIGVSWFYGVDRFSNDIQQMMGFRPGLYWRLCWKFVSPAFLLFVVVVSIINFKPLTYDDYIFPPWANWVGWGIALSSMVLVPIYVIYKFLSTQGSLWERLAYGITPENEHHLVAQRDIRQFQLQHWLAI
Voltage-gated inwardly rectifying potassium channel KCNH2, sequence (Q12809 whole entry): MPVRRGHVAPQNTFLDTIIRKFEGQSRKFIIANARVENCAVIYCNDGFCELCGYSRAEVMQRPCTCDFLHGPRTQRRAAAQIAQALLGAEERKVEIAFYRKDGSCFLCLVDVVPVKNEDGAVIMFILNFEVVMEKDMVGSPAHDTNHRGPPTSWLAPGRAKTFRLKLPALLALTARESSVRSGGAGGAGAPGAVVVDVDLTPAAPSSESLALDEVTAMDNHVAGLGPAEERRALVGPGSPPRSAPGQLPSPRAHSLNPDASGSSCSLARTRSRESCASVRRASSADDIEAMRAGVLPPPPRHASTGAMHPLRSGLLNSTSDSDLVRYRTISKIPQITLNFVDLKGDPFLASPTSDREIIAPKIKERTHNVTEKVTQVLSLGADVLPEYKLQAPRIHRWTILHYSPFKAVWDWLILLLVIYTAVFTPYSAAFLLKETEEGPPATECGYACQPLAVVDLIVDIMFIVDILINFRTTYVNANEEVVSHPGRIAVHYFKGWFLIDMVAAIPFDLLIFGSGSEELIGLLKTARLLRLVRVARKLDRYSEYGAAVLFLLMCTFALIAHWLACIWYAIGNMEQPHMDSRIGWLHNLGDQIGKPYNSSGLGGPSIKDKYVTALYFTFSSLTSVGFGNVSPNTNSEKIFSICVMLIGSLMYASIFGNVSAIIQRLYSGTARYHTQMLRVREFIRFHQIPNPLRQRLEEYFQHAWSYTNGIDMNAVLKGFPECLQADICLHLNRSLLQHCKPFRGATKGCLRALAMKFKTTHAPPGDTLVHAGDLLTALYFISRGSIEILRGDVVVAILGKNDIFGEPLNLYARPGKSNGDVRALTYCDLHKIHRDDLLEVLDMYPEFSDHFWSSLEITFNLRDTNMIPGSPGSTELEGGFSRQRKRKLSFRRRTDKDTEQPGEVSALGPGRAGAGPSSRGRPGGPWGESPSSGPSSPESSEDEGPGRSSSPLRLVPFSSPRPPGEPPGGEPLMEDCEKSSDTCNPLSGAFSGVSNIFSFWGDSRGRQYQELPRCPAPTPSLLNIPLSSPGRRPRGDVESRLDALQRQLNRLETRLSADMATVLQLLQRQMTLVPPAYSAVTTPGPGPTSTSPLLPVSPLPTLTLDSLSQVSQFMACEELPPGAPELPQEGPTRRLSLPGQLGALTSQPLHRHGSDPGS
Cytochrome P450 2C9, sequence (P11712 whole entry): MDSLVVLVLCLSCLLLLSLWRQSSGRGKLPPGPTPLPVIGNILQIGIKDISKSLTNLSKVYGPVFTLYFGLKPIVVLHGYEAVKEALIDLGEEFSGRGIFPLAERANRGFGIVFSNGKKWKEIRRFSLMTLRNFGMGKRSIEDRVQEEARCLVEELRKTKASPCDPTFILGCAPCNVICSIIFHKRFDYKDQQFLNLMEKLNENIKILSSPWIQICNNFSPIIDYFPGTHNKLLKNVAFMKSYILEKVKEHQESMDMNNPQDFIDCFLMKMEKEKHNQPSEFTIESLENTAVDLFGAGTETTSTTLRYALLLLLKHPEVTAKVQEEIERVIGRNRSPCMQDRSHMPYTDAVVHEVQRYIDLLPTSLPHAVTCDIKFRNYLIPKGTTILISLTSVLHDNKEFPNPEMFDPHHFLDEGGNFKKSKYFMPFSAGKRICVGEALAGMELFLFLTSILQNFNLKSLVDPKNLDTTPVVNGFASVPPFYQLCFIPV
Cytochrome P450 2C19, sequence (P33261 whole entry): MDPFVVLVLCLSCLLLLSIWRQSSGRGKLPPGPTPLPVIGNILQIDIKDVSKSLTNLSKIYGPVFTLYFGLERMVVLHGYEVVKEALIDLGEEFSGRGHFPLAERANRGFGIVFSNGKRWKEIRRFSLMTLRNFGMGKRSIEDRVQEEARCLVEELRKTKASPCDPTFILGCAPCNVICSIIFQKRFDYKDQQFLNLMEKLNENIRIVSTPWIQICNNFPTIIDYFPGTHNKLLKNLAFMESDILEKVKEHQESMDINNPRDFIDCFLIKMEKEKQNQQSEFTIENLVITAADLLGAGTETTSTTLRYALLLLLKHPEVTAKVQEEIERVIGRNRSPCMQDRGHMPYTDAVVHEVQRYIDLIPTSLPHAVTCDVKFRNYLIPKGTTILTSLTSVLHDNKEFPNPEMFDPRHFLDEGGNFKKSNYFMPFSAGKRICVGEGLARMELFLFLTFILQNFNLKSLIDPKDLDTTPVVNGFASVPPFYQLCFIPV
Kappa-type opioid receptor, sequence (P41145 whole entry): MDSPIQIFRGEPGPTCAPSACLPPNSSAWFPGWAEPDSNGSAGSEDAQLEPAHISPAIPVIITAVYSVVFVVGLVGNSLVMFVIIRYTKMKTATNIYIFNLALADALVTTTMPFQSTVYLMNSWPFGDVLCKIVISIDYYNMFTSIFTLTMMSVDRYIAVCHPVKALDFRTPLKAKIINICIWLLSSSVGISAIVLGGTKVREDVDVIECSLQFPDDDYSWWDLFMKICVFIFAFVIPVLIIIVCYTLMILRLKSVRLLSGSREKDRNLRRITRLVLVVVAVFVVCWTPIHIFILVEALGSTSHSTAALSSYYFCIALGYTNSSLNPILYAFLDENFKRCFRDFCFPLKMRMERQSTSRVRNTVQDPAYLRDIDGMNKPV

SMILES: CC(C)CN(C(=O)c1cccc(Cl)c1Cl)[C@@H]1CCNC1
Ki [1]: 13 nM
Ki [2]: 3090 nM
Ki [3]: 169 nM

SMILES: CC(C)CN(C(=O)c1cc(Cl)cc(Cl)c1)[C@H]1CCNC1
Ki [1]: 6 nM
Ki [2]: 3070 nM
IC50 [4]: > 10000 nM
Ki [3]: 43 nM

SMILES: O=C(c1cccc(Cl)c1Cl)N(C1=CCOC=C1)[C@H]1CCNC1
Papp A→B [6]: 1 ×10⁻⁶ cm/s
Ki [1]: 6 nM
efflux ratio [7]: 20
Ki [2]: 945 nM
Papp B→A [8]: 20 ×10⁻⁶ cm/s
IC50 [4]: > 40000 nM
Ki [3]: 10 nM
microsomal CLint [5]: 13 µL/min/mg

SMILES: O=C(c1cccc(Cl)c1Cl)N(c1ccccc1)[C@H]1CCNC1
Ki [1]: 3 nM
Ki [2]: 501 nM
IC50 [4]: 7920 nM
Ki [3]: 11 nM
microsomal CLint [5]: < 25 µL/min/mg

SMILES: CCCN(C(=O)c1cccc(Cl)c1Cl)[C@H]1CCNC1
Ki [1]: 16 nM
Ki [2]: 630 nM
IC50 [4]: > 18600 nM
Ki [3]: 36 nM
microsomal CLint [5]: < 7 µL/min/mg

SMILES: CC(C)CN(C(=O)c1cccc(Cl)c1Cl)[C@H]1CCNC1
Papp A→B [6]: 16 ×10⁻⁶ cm/s
IC50 [9]: > 30000 nM
Activity [10]: 35%
Papp A→B at 10 µM [11]: 12 ×10⁻⁶ cm/s
Activity [12]: Non-toxic
IC50 [13]: 5100 nM
IC50 [14]: > 30000 nM
IC50 [15]: 3600 nM
Activity [16]: Non-toxic
IC50 [17]: > 30000 nM
Ki [1]: 6 nM
IC50 [18]: > 30000 nM
efflux ratio [7]: 2.7
Papp B→A at 10 µM [19]: 26 ×10⁻⁶ cm/s
Activity [20]: Non-toxic
Ki [2]: 544 nM
Papp B→A [8]: 43 ×10⁻⁶ cm/s
fCmax [21]: 5 nM
IC50 [4]: 20000 nM
pKa [22]: 10
Ki [3]: 21 nM
IC50 [23]: > 30000 nM
IC50 [24]: > 30000 nM
hepatocyte CLint [25]: 3 µL/min/1e6 cells
IC50 [26]: > 30000 nM
microsomal CLint [5]: 11 µL/min/mg
logD [27]: 0.6
IC50 [28]: 5800 nM

SMILES: O=C(c1cccc(Cl)c1Cl)N(CC(F)(F)F)[C@H]1CCNC1
Ki [1]: 39 nM
Ki [2]: 3730 nM
Ki [3]: 95 nM
microsomal CLint [5]: < 8 µL/min/mg

SMILES: O=C(c1cccc(Cl)c1Cl)N(CCC1CC1)[C@H]1CCNC1
Ki [1]: 15 nM
Ki [2]: 404 nM
IC50 [4]: 7140 nM
Ki [3]: 24 nM
microsomal CLint [5]: 26 µL/min/mg

SMILES: O=C(c1cccc(Cl)c1Cl)N(C1CCCC1)[C@H]1CCNC1
Papp A→B [6]: 10 ×10⁻⁶ cm/s
Ki [1]: 6 nM
Ki [2]: 983 nM
Papp B→A [8]: 64 ×10⁻⁶ cm/s
Ki [3]: 11 nM
microsomal CLint [5]: < 7 µL/min/mg

SMILES: CCC(CC)N(C(=O)c1cccc(Cl)c1Cl)[C@H]1CCNC1
Ki [1]: 20 nM
Ki [2]: 2600 nM
IC50 [4]: 7740 nM
Ki [3]: 37 nM
microsomal CLint [5]: 34 µL/min/mg

SMILES: CC(C)C(=O)N(Cc1cccc(Cl)c1Cl)[C@H]1CCNC1
Papp A→B [6]: 15 ×10⁻⁶ cm/s
Ki [1]: 9 nM
efflux ratio [7]: 4.3
Ki [2]: 640 nM
Papp B→A [8]: 64 ×10⁻⁶ cm/s
Ki [3]: 52 nM
Kp [29]: 0.1
microsomal CLint [5]: < 7.6 µL/min/mg

Second part, led by results:

Ki [1]: 11 nM
Ki [2]: 2070 nM
Ki [3]: 103 nM
SMILES: CC(C)CN(C(=O)c1cccc(C(F)(F)F)c1Cl)[C@H]1CCNC1

Ki [1]: 54 nM
Ki [2]: 2430 nM
Ki [3]: 198 nM
microsomal CLint [5]: 29 µL/min/mg
SMILES: CC(C)CN(C(=O)c1cc(Cl)ccc1Cl)[C@H]1CCNC1
IC50 [4]: 19800 nM

Ki [1]: 10 nM
Ki [2]: 2560 nM
Ki [3]: 139 nM
microsomal CLint [5]: 26 µL/min/mg
SMILES: CC(C)CN(C(=O)c1cccc(Cl)c1F)[C@H]1CCNC1
IC50 [4]: > 10000 nM

Ki [1]: 25 nM
Ki [3]: 26 nM
SMILES: CC(C)CN(C(=O)c1cccc(F)c1C(F)(F)F)[C@H]1CCNC1
IC50 [4]: > 10000 nM

Ki [1]: 7 nM
Ki [2]: 2540 nM
Ki [3]: 263 nM
microsomal CLint [5]: 20 µL/min/mg
SMILES: CC(C)CN(C(=O)c1ccc(F)cc1Cl)[C@H]1CCNC1

Ki [1]: 3 nM
Ki [2]: 516 nM
Ki [3]: 29 nM
microsomal CLint [5]: 26 µL/min/mg
SMILES: Cc1c(Cl)cccc1C(=O)N(CC(C)C)[C@H]1CCNC1
IC50 [4]: 52400 nM

Ki [1]: 13 nM
Ki [2]: 1610 nM
Ki [3]: 69 nM
microsomal CLint [5]: 21 µL/min/mg
SMILES: Cc1c(F)cccc1C(=O)N(CC(C)C)[C@H]1CCNC1

Ki [1]: 15 nM
Ki [2]: 2370 nM
Ki [3]: 67 nM
microsomal CLint [5]: 20 µL/min/mg
SMILES: CC(C)CN(C(=O)c1cccc(F)c1Cl)[C@H]1CCNC1

Ki [1]: 1320 nM
Ki [2]: 3590 nM
Ki [3]: 65 nM
microsomal CLint [5]: < 7 µL/min/mg
SMILES: CC(C)CN(C(=O)c1ccccc1C(C)C)[C@H]1CCNC1
IC50 [4]: 12900 nM

Ki [1]: 29 nM
Ki [2]: 1090 nM
Ki [3]: 217 nM
microsomal CLint [5]: < 13 µL/min/mg
SMILES: CCN(C(=O)c1cccc(Cl)c1Cl)[C@H]1CCNC1
IC50 [4]: > 20000 nM

Ki [1]: 4 nM
Ki [2]: 430 nM
Ki [3]: 50 nM
microsomal CLint [5]: 36 µL/min/mg
SMILES: CC(C)CN(C(=O)c1ccc(Cl)c(Cl)c1)[C@H]1CCNC1

Ki [1]: 19 nM
Ki [2]: 1330 nM
Ki [3]: 135 nM
microsomal CLint [5]: 23.5 µL/min/mg
SMILES: CC(C)CN(C(=O)c1cccc(Cl)c1)[C@H]1CCNC1

Ki [1]: 3 nM
Ki [2]: 2400 nM
Ki [3]: 37 nM
microsomal CLint [5]: 26 µL/min/mg
SMILES: CC(C)CN(C(=O)c1ccc(Cl)cc1Cl)[C@H]1CCNC1

Ki [1]: 4 nM
Ki [2]: 273 nM
Ki [3]: 13 nM
SMILES: CC(C)(C)CN(C(=O)c1cccc(Cl)c1Cl)[C@H]1CCNC1

— ChEMBL document CHEMBL1154203, “N-[(3S)-Pyrrolidin-3-yl]benzamides as novel dual serotonin and noradrenaline reuptake inhibitors: impact of small structural modifications on P-gp recognition and CNS penetration” (Bioorg Med Chem Lett, 2009)
